From the supplement of paper PMC10307832

Columns and labels:
Experiment in all cases: relative viability (nuclei count vs DMSO), 5 days (fraction); higher = more cells survive
NCI-H1734 = system: NCI-H1734
Method in brief: (§1)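 Lung cancer cell lines, seeded in 1536-well plates, were treated the following day by pin tool with a single drug or with five library-drug doses (not always all listed) in √10 steps on top of a fixed anchor-drug dose. Cells were fixed and nuclei stained in one step after 5 days, and nuclei were counted. Relative viability is the nuclei count for treated wells divided by that for vehicle wells, reported as medians of duplicate plates.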

HCC-366 = system: HCC-366
Method in brief: as §1

NCI-H2170 = system: NCI-H2170
Method in brief: as §1

NCI-H1792 = system: NCI-H1792
Method in brief: as §1

H3255 = system: H3255
Method in brief: as §1

EKVX = system: EKVX
Method in brief: as §1

NCI-H520 = system: NCI-H520
Method in brief: as §1

NCI-H1666 = system: NCI-H1666
Method in brief: as §1

NCI-H1563 = system: NCI-H1563
Method in brief: as §1

NCI-H596 = system: NCI-H596
Method in brief: as §1

LK-2 = system: LK-2
Method in brief: as §1

NCI-H23 = system: NCI-H23
Method in brief: as §1

COR-L 105 = system: COR-L 105
Method in brief: as §1

ChaGo-K-1 = system: ChaGo-K-1
Method in brief: as §1

SK-MES-1 = system: SK-MES-1
Method in brief: as §1

EMC-BAC-2 = system: EMC-BAC-2
Method in brief: as §1

NCI-H441 = system: NCI-H441
Method in brief: as §1

SW 900 = system: SW 900
Method in brief: as §1

NCI-H1755 = system: NCI-H1755
Method in brief: as §1

LOU-NH91 = system: LOU-NH91
Method in brief: as §1

NCI-H1975 = system: NCI-H1975
Method in brief: as §1

PC-3 [JPC-3] = system: PC-3 [JPC-3]
Method in brief: as §1

A-427 = system: A-427
Method in brief: as §1

Structure (SMILES): NC(=O)Nc1cc(-c2cccc(F)c2)sc1C(=O)N[C@H]1CCCNC1 [AZD7762] + Nc1nc2[nH]cc(CCc3ccc(C(=O)N[C@@H](CCC(=O)O)C(=O)O)cc3)c2c(=O)[nH]1 [Pemetrexed] (partner 0.2 µM)
- relative viability (NCI-H1734; first compound 0.01 µM): 0.398
- relative viability (NCI-H1734; first compound 0.03162 µM): 0.353
- relative viability (NCI-H1734; first compound 0.1 µM): 0.334
- relative viability (NCI-H1734; first compound 0.3162 µM): 0.303
- relative viability (NCI-H1734; first compound 1 µM): 0.28
- relative viability (HCC-366; first compound 0.01 µM): 0.195
- relative viability (HCC-366; first compound 0.03162 µM): 0.11
- relative viability (HCC-366; first compound 0.1 µM): 0.0981
- relative viability (HCC-366; first compound 0.3162 µM): 0.0668
- relative viability (HCC-366; first compound 1 µM): 0.0716
- relative viability (NCI-H2170; first compound 0.01 µM): 0.272
- relative viability (NCI-H2170; first compound 0.03162 µM): 0.264
- relative viability (NCI-H2170; first compound 0.1 µM): 0.285
- relative viability (NCI-H2170; first compound 0.3162 µM): 0.236
- relative viability (NCI-H2170; first compound 1 µM): 0.21
- relative viability (NCI-H1792; first compound 0.01 µM): 0.957
- relative viability (NCI-H1792; first compound 0.03162 µM): 0.822
- relative viability (NCI-H1792; first compound 0.1 µM): 0.844
- relative viability (NCI-H1792; first compound 0.3162 µM): 0.732
- relative viability (NCI-H1792; first compound 1 µM): 0.421
- relative viability (H3255; first compound 0.01 µM): 0.549
- relative viability (H3255; first compound 0.03162 µM): 0.61
- relative viability (H3255; first compound 0.1 µM): 0.573
- relative viability (H3255; first compound 0.3162 µM): 0.531
- relative viability (H3255; first compound 1 µM): 0.477
- relative viability (EKVX; first compound 0.01 µM): 0.394
- relative viability (EKVX; first compound 0.03162 µM): 0.346
- relative viability (EKVX; first compound 0.1 µM): 0.248
- relative viability (EKVX; first compound 0.3162 µM): 0.208
- relative viability (EKVX; first compound 1 µM): 0.152
- relative viability (NCI-H520; first compound 0.01 µM): 0.761
- relative viability (NCI-H520; first compound 0.03162 µM): 0.458
- relative viability (NCI-H520; first compound 0.1 µM): 0.421
- relative viability (NCI-H520; first compound 0.3162 µM): 0.175
- relative viability (NCI-H520; first compound 1 µM): 0.17
- relative viability (NCI-H1666; first compound 0.01 µM): 0.851
- relative viability (NCI-H1666; first compound 0.03162 µM): 0.838
- relative viability (NCI-H1666; first compound 0.1 µM): 0.739
- relative viability (NCI-H1666; first compound 0.3162 µM): 0.594
- relative viability (NCI-H1666; first compound 1 µM): 0.719
- relative viability (NCI-H1563; first compound 0.01 µM): 0.853
- relative viability (NCI-H1563; first compound 0.03162 µM): 0.997
- relative viability (NCI-H1563; first compound 0.1 µM): 0.84
- relative viability (NCI-H1563; first compound 0.3162 µM): 0.693
- relative viability (NCI-H1563; first compound 1 µM): 0.765
- relative viability (NCI-H596; first compound 0.01 µM): 0.484
- relative viability (NCI-H596; first compound 0.03162 µM): 0.573
- relative viability (NCI-H596; first compound 0.1 µM): 0.54
- relative viability (NCI-H596; first compound 0.3162 µM): 0.425
- relative viability (NCI-H596; first compound 1 µM): 0.393
- relative viability (LK-2; first compound 0.01 µM): 0.316
- relative viability (LK-2; first compound 0.03162 µM): 0.358
- relative viability (LK-2; first compound 0.1 µM): 0.274
- relative viability (LK-2; first compound 0.3162 µM): 0.214
- relative viability (LK-2; first compound 1 µM): 0.169
- relative viability (NCI-H23; first compound 0.01 µM): 0.722
- relative viability (NCI-H23; first compound 0.03162 µM): 0.62
- relative viability (NCI-H23; first compound 0.1 µM): 0.514
- relative viability (NCI-H23; first compound 0.3162 µM): 0.359
- relative viability (NCI-H23; first compound 1 µM): 0.275
- relative viability (COR-L 105; first compound 0.01 µM): 0.961
- relative viability (COR-L 105; first compound 0.03162 µM): 1.11
- relative viability (COR-L 105; first compound 0.1 µM): 0.913
- relative viability (COR-L 105; first compound 0.3162 µM): 0.87
- relative viability (COR-L 105; first compound 1 µM): 0.579
- relative viability (ChaGo-K-1; first compound 0.01 µM): 0.26
- relative viability (ChaGo-K-1; first compound 0.03162 µM): 0.267
- relative viability (ChaGo-K-1; first compound 0.1 µM): 0.259
- relative viability (ChaGo-K-1; first compound 0.3162 µM): 0.243
- relative viability (ChaGo-K-1; first compound 1 µM): 0.256
- relative viability (SK-MES-1; first compound 0.01 µM): 1.01
- relative viability (SK-MES-1; first compound 0.03162 µM): 0.914
- relative viability (SK-MES-1; first compound 0.1 µM): 0.86
- relative viability (SK-MES-1; first compound 0.3162 µM): 0.433
- relative viability (SK-MES-1; first compound 1 µM): 0.237
- relative viability (EMC-BAC-2; first compound 0.01 µM): 0.457
- relative viability (EMC-BAC-2; first compound 0.03162 µM): 0.397
- relative viability (EMC-BAC-2; first compound 0.1 µM): 0.405
- relative viability (EMC-BAC-2; first compound 0.3162 µM): 0.35
- relative viability (EMC-BAC-2; first compound 1 µM): 0.387
- relative viability (NCI-H441; first compound 0.01 µM): 0.267
- relative viability (NCI-H441; first compound 0.03162 µM): 0.288
- relative viability (NCI-H441; first compound 0.1 µM): 0.294
- relative viability (NCI-H441; first compound 0.3162 µM): 0.275
- relative viability (NCI-H441; first compound 1 µM): 0.271
- relative viability (SW 900; first compound 0.01 µM): 0.533
- relative viability (SW 900; first compound 0.03162 µM): 0.459
- relative viability (SW 900; first compound 0.1 µM): 0.452
- relative viability (SW 900; first compound 0.3162 µM): 0.475
- relative viability (SW 900; first compound 1 µM): 0.374
- relative viability (NCI-H1755; first compound 0.01 µM): 0.48
- relative viability (NCI-H1755; first compound 0.03162 µM): 0.441
- relative viability (NCI-H1755; first compound 0.1 µM): 0.401
- relative viability (NCI-H1755; first compound 0.3162 µM): 0.36
- relative viability (NCI-H1755; first compound 1 µM): 0.277
- relative viability (LOU-NH91; first compound 0.01 µM): 0.437
- relative viability (LOU-NH91; first compound 0.03162 µM): 0.306
- relative viability (LOU-NH91; first compound 0.1 µM): 0.335
- relative viability (LOU-NH91; first compound 0.3162 µM): 0.359
- relative viability (LOU-NH91; first compound 1 µM): 0.349
- relative viability (NCI-H1975; first compound 0.01 µM): 0.309
- relative viability (NCI-H1975; first compound 0.03162 µM): 0.27
- relative viability (NCI-H1975; first compound 0.1 µM): 0.254
- relative viability (NCI-H1975; first compound 0.3162 µM): 0.221
- relative viability (NCI-H1975; first compound 1 µM): 0.198
- relative viability (PC-3 [JPC-3]; first compound 0.01 µM): 0.626
- relative viability (PC-3 [JPC-3]; first compound 0.03162 µM): 1.08
- relative viability (PC-3 [JPC-3]; first compound 0.1 µM): 1.12
- relative viability (PC-3 [JPC-3]; first compound 0.3162 µM): 0.859
- relative viability (PC-3 [JPC-3]; first compound 1 µM): 0.688
- relative viability (A-427; first compound 0.01 µM): 0.949
- relative viability (A-427; first compound 0.03162 µM): 0.94
- relative viability (A-427; first compound 0.1 µM): 1.11
- relative viability (A-427; first compound 0.3162 µM): 0.916
- relative viability (A-427; first compound 1 µM): 0.374
